Experimental data reported in patent US20060252807A1, “Novel ortho-terphenyl inhibitors of p38 kinase and methods of treating inflammatory disorders” (Kalypsys, Inc., priority 2005, published 2006).

biological target: T1, active p38 alpha enzyme (Upstate Biotechnology) (Homo sapiens, UniProt Q16539); assay: p38α biochemical assay (ATP turnover, luminescent detection, Cambrex PKlight); conditions: p38α biochemical assay, Table 1 Biological Activity
T1 construct: purchased Upstate Biotechnology
Outline: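 Luminescent ATP-depletion readout measures total ATP turnover by p38α phosphorylating whole MapkapK2 protein. ATP 1.4 uM final; 30C, 2 h. Compounds delivered from DMSO.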

T1 sequence (Q16539 whole entry): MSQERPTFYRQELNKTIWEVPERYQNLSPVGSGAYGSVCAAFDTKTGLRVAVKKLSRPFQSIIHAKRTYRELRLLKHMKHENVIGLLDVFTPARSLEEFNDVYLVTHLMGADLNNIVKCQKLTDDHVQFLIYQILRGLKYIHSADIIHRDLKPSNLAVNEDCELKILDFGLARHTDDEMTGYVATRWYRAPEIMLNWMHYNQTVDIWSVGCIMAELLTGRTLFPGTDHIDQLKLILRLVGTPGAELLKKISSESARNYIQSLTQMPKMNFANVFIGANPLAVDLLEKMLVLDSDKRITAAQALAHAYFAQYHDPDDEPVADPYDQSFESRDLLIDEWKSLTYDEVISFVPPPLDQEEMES

SMILES	IC50 [nM]
Cc1ccccc1OCC(=O)NCc1nc(-c2ccc(F)cc2)c(-c2nc(C(=O)NC(C)C)cs2)o1 [Example 180]	> 1000
COCCNCc1onc(-c2ccc(F)cc2)c1-c1nc(C(=O)NC(C)C)cs1 [Example 33, 2-{3-(4-Fluoro-phenyl)-5-|(2-methoxy-ethylamino)-methyl|-isoxazol-4-yl}-thiazole-4-carboxylic acid isopropylamide]	> 1000
CC(C)NC(=O)c1csc(-c2c(-c3ccc(F)cc3)noc2CNC(=O)c2cc(Cl)ccc2Cl)n1 [Example 728]	> 1000
COc1cccc(OC)c1C(=O)NCc1onc(-c2ccc(F)cc2)c1-c1nc(C(=O)NC(C)C)cs1 [Example 701]	> 1000
COc1cc(C(=O)N2CCN(Cc3nc(-c4ccc(F)cc4)c(-c4nc(C(=O)NC(C)C)cs4)o3)CC2)c([N+](=O)[O-])cc1OC [Example 544]	> 1000
CC(C)NC(=O)c1csc(-c2oc(CNC(=O)C3CCCCC3)nc2-c2ccc(F)cc2)n1 [Example 118]	≤ 1000
CC(C)NC(=O)c1csc(-c2oc(CN3CCN(C(=O)c4ccc(-c5ccc(O)cc5)cc4)CC3)nc2-c2ccc(F)cc2)n1 [Example 528]	≤ 1000
CC(C)NC(=O)c1csc(-c2oc(CN3CCN(C(=O)c4ccc(Cl)nc4)CC3)nc2-c2ccc(F)cc2)n1 [Example 389]	> 1000
CC(C)NC(=O)c1csc(-c2c(-c3ccc(F)cc3)noc2CNC(=O)c2ccccc2[N+](=O)[O-])n1 [Example 659]	> 1000
CC(C)NC(=O)c1csc(-c2oc(CNC(=O)c3cccc(O)c3O)nc2-c2ccc(F)cc2)n1 [Example 147]	≤ 1000
Cc1[nH]nc(-c2ccc(F)cc2)c1-c1nc(C(=O)NCc2cccnc2)cs1 [Example 76, 2-|3-(4-Fluoro-phenyl)-5-methyl-1H-pyrazol-4-yl|-thiazole-4-carboxylic acid (pyridin-3-ylmethyl)-amide]	≤ 1000
CC(C)NC(=O)c1csc(-c2oc(CN3CCN(C(=O)C(Cl)(Cl)Cl)CC3)nc2-c2ccc(F)cc2)n1 [Example 402]	≤ 1000
CC(C)NC(=O)c1csc(-c2oc(CN3CCN(C(=O)c4cncc(Br)c4)CC3)nc2-c2ccc(F)cc2)n1 [Example 514]	> 1000
CC(C)NC(=O)c1csc(-c2c(-c3ccc(F)cc3)noc2CNC(=O)C(C)NC(=O)OC(C)(C)C)n1 (stereo not drawn) [Example 722]	> 1000
CC(C)NC(=O)c1csc(-c2oc(CNC(=O)c3cccc(F)c3)nc2-c2ccc(F)cc2)n1 [Example 127]	> 1000
CC(C)NC(=O)c1csc(-c2oc(CN3CCN(C(=O)c4ccc5c(c4)OCO5)CC3)nc2-c2ccc(F)cc2)n1 [Example 414]	> 1000
CC(C)NC(=O)c1csc(-c2oc(CN3CCN(C(=O)C4CCCN4C(=O)OCc4ccccc4)CC3)nc2-c2ccc(F)cc2)n1 (stereo not drawn) [Example 564]	> 1000
Cc1nc(-c2ccc(F)cc2)c(-c2nc(C(=O)NCc3ccncc3)cs2)s1 [Example 57, 4′-(4-Fluoro-phenyl)-2′-methyl-|2,5′|bithiazolyl-4-carboxylic acid (pyridin-4-ylmethyl)-amide]	≤ 1000
CC(C)NC(=O)c1csc(-c2oc(CN3CCN(C(=O)c4ccc(F)cc4Cl)CC3)nc2-c2ccc(F)cc2)n1 [Example 436]	> 1000
COc1ccc(C(=O)NCc2onc(-c3ccc(F)cc3)c2-c2nc(C(=O)NC(C)C)cs2)c(O)c1 [Example 663]	> 1000
CCC(C)C(NC(=O)OC(C)(C)C)C(=O)N1CCN(Cc2nc(-c3ccc(F)cc3)c(-c3nc(C(=O)NC(C)C)cs3)o2)CC1 (stereo not drawn) [Example 565]	> 1000
O=C(O)c1csc(-c2c(-c3ccc(F)cc3)ncn2C2CCNCC2)n1 [Example 95, 2-|5-(4-Fluoro-phenyl)-3-piperidin-4-yl-3H-imidazol-4-yl|-thiazole-4-carboxylic acid]	> 1000
CC(C)NC(=O)c1csc(-c2oc(CNC(=O)C(C)c3ccc(-c4ccccc4)c(F)c3)nc2-c2ccc(F)cc2)n1 (stereo not drawn) [Example 324]	> 1000
CC(C)NC(=O)c1csc(-c2oc(CNC(=O)COc3ccccc3C=O)nc2-c2ccc(F)cc2)n1 [Example 212]	> 1000
CC1=NN(c2ccc(C(=O)NCc3nc(-c4ccc(F)cc4)c(-c4nc(C(=O)NC(C)C)cs4)o3)cc2)C(=O)C1 [Example 301]	≤ 1000
Cc1ccc(C(=O)NCc2onc(-c3ccc(F)cc3)c2-c2nc(C(=O)NC(C)C)cs2)cc1 [Example 598]	> 1000
CC(C)NC(=O)c1csc(-c2oc(CN3CCN(C(=O)C(C)(C)C)CC3)nc2-c2ccc(F)cc2)n1 [Example 340]	≤ 1000
Cc1ccccc1CC(=O)NCc1onc(-c2ccc(F)cc2)c1-c1nc(C(=O)NC(C)C)cs1 [Example 610]	> 1000
Cc1cccc(C(=O)NCc2nc(-c3ccc(F)cc3)c(-c3nc(C(=O)NC(C)C)cs3)o2)c1[N+](=O)[O-] [Example 221]	≤ 1000

same assay, conditions: p38α kinase; Table 1 Biological Activity

SMILES	IC50 [nM]
CCN(CC)Cc1nc(-c2ccc(F)cc2)c(-c2nc(C(=O)NC(C)C)cs2)o1 [Example 1188]	> 1000
Cc1nc(-c2ccc(F)cc2)c(-c2nc(C(=O)NC(C)CCCC(C)C)cs2)s1 (stereo not drawn) [Example 1764]	> 1000
CC(C)NC(=O)c1csc(-c2oc(CNCCc3ccccc3)nc2-c2ccc(F)cc2)n1 [Example 1099]	> 1000
Cc1nc(-c2ccc(F)cc2)c(-c2nc(C(=O)NCc3cccs3)cs2)s1 [Example 1743]	≤ 1000
CC(C)NC(=O)c1csc(-c2c(-c3ccc(F)cc3)noc2CNC2CCN(Cc3ccccc3)C2)n1 (stereo not drawn) [Example 1497]	> 1000
Cc1nc(-c2ccc(F)cc2)c(-c2nc(C(=O)NCc3cccc(C(F)(F)F)c3)cs2)s1 [Example 1819]	≤ 1000
CCN(C(=O)c1csc(-c2sc(C)nc2-c2ccc(F)cc2)n1)C(C)C [Example 1843]	> 1000
CC(C)NC(=O)c1csc(-c2c(-c3ccc(F)cc3)n[nH]c2C2CCN(C(=O)Cc3ccc4c(c3)OCO4)CC2)n1 [Example 931]	> 1000
CC(C)NC(=O)c1csc(-c2c(-c3ccc(F)cc3)n[nH]c2C2CCN(C(=O)C(C)NC(=O)OC(C)(C)C)CC2)n1 (stereo not drawn) [Example 962]	> 1000
CC(C)NC(=O)c1csc(-c2c(-c3ccc(F)cc3)noc2CNCc2ccc(F)c(Cl)c2)n1 [Example 1483]	> 1000
C#CCN(Cc1nc(-c2ccc(F)cc2)c(-c2nc(C(=O)NC(C)C)cs2)o1)Cc1ccc(Cl)cc1Cl [Example 1290]	> 1000
Cc1nc(-c2ccc(F)cc2)c(-c2nc(C(=O)N3CCN(c4ccc(F)cc4)CC3)cs2)s1 [Example 1905]	> 1000
CCOC(=O)CC(C)NCc1nc(-c2ccc(F)cc2)c(-c2nc(C(=O)NC(C)C)cs2)o1 (stereo not drawn) [Example 1111]	> 1000
CC(C)NC(=O)c1csc(-c2c(-c3ccc(F)cc3)noc2CNc2ccc3ncsc3c2)n1 [Example 1674]	> 1000
COc1ccc(-c2ccccc2)cc1NCc1onc(-c2ccc(F)cc2)c1-c1nc(C(=O)NC(C)C)cs1 [Example 1695]	≤ 1000
Cc1ccc([C@@H](C)NCc2onc(-c3ccc(F)cc3)c2-c2nc(C(=O)NC(C)C)cs2)cc1 [Example 1447]	> 1000
Cc1nc(-c2ccc(F)cc2)c(-c2nc(C(=O)N3CCc4ccccc4C3)cs2)s1 [Example 1874]	> 1000
Cc1ccc(C(=O)N2CCC(c3[nH]nc(-c4ccc(F)cc4)c3-c3nc(C(=O)NC(C)C)cs3)CC2)c(C)c1 [Example 848]	> 1000
CC(C)NC(=O)c1csc(-c2oc(CN3CCN(CCN4CCOCC4)CC3)nc2-c2ccc(F)cc2)n1 [Example 1278]	> 1000

SMILES	IC50 [nM]
Cc1nc(-c2ccc(F)cc2)c(-c2nc(C(=O)Nc3ccc4ncsc4c3)cs2)s1 [Example 1999]	> 1000
Cc1nc(-c2ccc(F)cc2)c(-c2nc(C(=O)NCC3CC3)cs2)s1 [Example 1715]	≤ 1000
CC(C)NC(=O)c1csc(-c2c(-c3ccc(F)cc3)noc2CNCCc2cccc(F)c2)n1 [Example 1460]	> 1000
CC(C)NC(=O)c1csc(-c2c(-c3ccc(F)cc3)noc2CNCCc2ccc(F)cc2)n1 [Example 1458]	> 1000
CC(C)NC(=O)c1csc(-c2oc(CN(Cc3ccccc3)C(C)C)nc2-c2ccc(F)cc2)n1 [Example 1233]	> 1000
CCC(C(=O)N1CCC(c2[nH]nc(-c3ccc(F)cc3)c2-c2nc(C(=O)NC(C)C)cs2)CC1)c1ccccc1 (stereo not drawn) [Example 888]	> 1000
CC(C)NC(=O)c1csc(-c2c(-c3ccc(F)cc3)noc2CNC(C)CCc2ccccc2)n1 (stereo not drawn) [Example 1470]	> 1000
Cc1nc(-c2ccc(F)cc2)c(-c2nc(C(=O)NCCc3ccccc3F)cs2)s1 [Example 1783]	≤ 1000
CCC(C)C(NC(=O)OC(C)(C)C)C(=O)NCc1onc(-c2ccc(F)cc2)c1-c1nc(C(=O)NC(C)C)cs1 (stereo not drawn) [Example 803]	> 1000
CC(C)(C)CCNC(=O)c1csc(-c2c(-c3ccc(F)cc3)n[nH]c2C2CCNCC2)n1 [Example 2057]	> 1000
CC(C)NC(=O)c1csc(-c2c(-c3ccc(F)cc3)noc2CN(CCC#N)Cc2ccccc2)n1 [Example 1381]	> 1000
CC(C)NC(=O)c1csc(-c2c(-c3ccc(F)cc3)n[nH]c2C2CCN(C(=O)CC#N)CC2)n1 [Example 814]	≤ 1000
CCN(C)C(=O)c1csc(-c2sc(C)nc2-c2ccc(F)cc2)n1 [Example 1835]	> 1000
CC(C)NC(=O)c1csc(-c2c(-c3ccc(F)cc3)n[nH]c2C2CCN(C(=O)C(C)NC(=O)OC(C)(C)C)CC2)n1 (stereo not drawn) [Example 961]	> 1000
CCCCN(Cc1ccccc1)Cc1nc(-c2ccc(F)cc2)c(-c2nc(C(=O)NC(C)C)cs2)o1 [Example 1243]	> 1000
Cc1cc(C(=O)N2CCC(c3[nH]nc(-c4ccc(F)cc4)c3-c3nc(C(=O)NC(C)C)cs3)CC2)n[nH]1 [Example 830]	> 1000
CC(C)NC(=O)c1csc(-c2c(-c3ccc(F)cc3)n[nH]c2C2CCN(C(=O)c3ccc(F)c(F)c3)CC2)n1 [Example 875]	> 1000
Cc1ccc([C@@H](C)NCc2nc(-c3ccc(F)cc3)c(-c3nc(C(=O)NC(C)C)cs3)o2)cc1 [Example 1116]	> 1000
